# Calls of active or inactive are those of the source. The calls are words filed in the database; no cut-off is given here.
# Tested on: MDA-MB-231
# Assay: Antiproliferative activity against human triple-negative MDA-MB-231 cells at 52 to 65 uM after 72 hrs by CellTiter-Glo assay
# Type: functional, cell-based
# Details: not given
row,SMILES,Activity
1,CC(C)c1ccc2c(c1)CC[C@H]1[C@](C)(CNC(=O)c3c(Cl)cc(Cl)cc3Cl)CCC[C@]21C,inactive
2,CC(C)c1ccc2c(c1)CC[C@H]1[C@](C)(CNC(=O)CSc3ccccc3)CCC[C@]21C,inactive
3,CC(C)c1ccc2c(c1)CC[C@H]1[C@](C)(CNC(=O)c3cc4ccccc4o3)CCC[C@]21C,inactive
4,COc1ccc(C(=O)NC[C@]2(C)CCC[C@]3(C)c4ccc(C(C)C)cc4CC[C@@H]23)cc1,inactive
5,Cc1nnsc1C(=O)NC[C@]1(C)CCC[C@]2(C)c3ccc(C(C)C)cc3CC[C@@H]12,inactive
6,CC(C)c1ccc2c(c1)CC[C@H]1[C@](C)(CNC(=O)c3ccc(C#N)cc3)CCC[C@]21C,inactive
7,CC(C)c1ccc2c(c1)CC[C@H]1[C@](C)(CNC(=O)c3ccc(Cl)c([N+](=O)[O-])c3)CCC[C@]21C,inactive
8,CC(C)c1ccc2c(c1)CC[C@H]1[C@](C)(CNC(=O)C3CC4C=CC3C4)CCC[C@]21C (stereo not given in full),inactive
9,CC(C)c1ccc2c(c1)CC[C@H]1[C@](C)(CNC(=O)CC3CCCC3)CCC[C@]21C,inactive
10,CC(C)c1ccc2c(c1)CC[C@H]1[C@](C)(CNC(=O)c3ccc(-c4ccccc4)cc3)CCC[C@]21C,inactive
11,Cc1ccsc1C(=O)NC[C@]1(C)CCC[C@]2(C)c3ccc(C(C)C)cc3CC[C@@H]12,inactive
12,Cc1csc(C(=O)NC[C@]2(C)CCC[C@]3(C)c4ccc(C(C)C)cc4CC[C@@H]23)c1,inactive
13,CC(C)c1ccc2c(c1)CC[C@H]1[C@](C)(CNC(=O)c3ccc(Cl)cc3Cl)CCC[C@]21C,inactive
14,CC(C)c1ccc2c(c1)CC[C@H]1[C@](C)(CNC(=O)c3cccs3)CCC[C@]21C,inactive
15,CC(C)c1ccc2c(c1)CC[C@H]1[C@](C)(CNC(=O)c3ccc(I)cc3)CCC[C@]21C,inactive

# Tested on: HepG2
# Assay: Cytotoxicity against human HepG2 cells at 52 to 65 uM after 72 hrs by CellTiter-Glo assay
# Type: cell-based
# Details: hepg2, 72 h
row,SMILES,Activity
1,CC(C)c1ccc2c(c1)CC[C@H]1[C@](C)(CNC(=O)c3c(Cl)cc(Cl)cc3Cl)CCC[C@]21C,Non-toxic
2,CC(C)c1ccc2c(c1)CC[C@H]1[C@](C)(CNC(=O)CSc3ccccc3)CCC[C@]21C,Non-toxic
3,CC(C)c1ccc2c(c1)CC[C@H]1[C@](C)(CNC(=O)c3cc4ccccc4o3)CCC[C@]21C,Non-toxic
4,COc1ccc(C(=O)NC[C@]2(C)CCC[C@]3(C)c4ccc(C(C)C)cc4CC[C@@H]23)cc1,Non-toxic
5,Cc1nnsc1C(=O)NC[C@]1(C)CCC[C@]2(C)c3ccc(C(C)C)cc3CC[C@@H]12,Non-toxic
6,CC(C)c1ccc2c(c1)CC[C@H]1[C@](C)(CNC(=O)c3ccc(C#N)cc3)CCC[C@]21C,Non-toxic
7,CC(C)c1ccc2c(c1)CC[C@H]1[C@](C)(CNC(=O)c3ccc(Cl)c([N+](=O)[O-])c3)CCC[C@]21C,Non-toxic
8,CC(C)c1ccc2c(c1)CC[C@H]1[C@](C)(CNC(=O)C3CC4C=CC3C4)CCC[C@]21C (stereo not given in full),Non-toxic
9,CC(C)c1ccc2c(c1)CC[C@H]1[C@](C)(CNC(=O)CC3CCCC3)CCC[C@]21C,Non-toxic
10,CC(C)c1ccc2c(c1)CC[C@H]1[C@](C)(CNC(=O)c3ccc(-c4ccccc4)cc3)CCC[C@]21C,Non-toxic
11,Cc1ccsc1C(=O)NC[C@]1(C)CCC[C@]2(C)c3ccc(C(C)C)cc3CC[C@@H]12,Non-toxic
12,Cc1csc(C(=O)NC[C@]2(C)CCC[C@]3(C)c4ccc(C(C)C)cc4CC[C@@H]23)c1,Non-toxic
13,CC(C)c1ccc2c(c1)CC[C@H]1[C@](C)(CNC(=O)c3ccc(Cl)cc3Cl)CCC[C@]21C,Non-toxic
14,CC(C)c1ccc2c(c1)CC[C@H]1[C@](C)(CNC(=O)c3cccs3)CCC[C@]21C,Non-toxic
15,CC(C)c1ccc2c(c1)CC[C@H]1[C@](C)(CNC(=O)c3ccc(I)cc3)CCC[C@]21C,Non-toxic

# Tested on: HEK293
# Assay: Cytotoxicity against HEK293 cells at 52 to 65 uM after 72 hrs by CellTiter-Glo assay
# Type: cell-based
# Details: human, hek293, 72 h
row,SMILES,Activity
1,CC(C)c1ccc2c(c1)CC[C@H]1[C@](C)(CNC(=O)c3c(Cl)cc(Cl)cc3Cl)CCC[C@]21C,Non-toxic
2,CC(C)c1ccc2c(c1)CC[C@H]1[C@](C)(CNC(=O)CSc3ccccc3)CCC[C@]21C,Non-toxic
3,CC(C)c1ccc2c(c1)CC[C@H]1[C@](C)(CNC(=O)c3cc4ccccc4o3)CCC[C@]21C,Non-toxic
4,COc1ccc(C(=O)NC[C@]2(C)CCC[C@]3(C)c4ccc(C(C)C)cc4CC[C@@H]23)cc1,Non-toxic
5,Cc1nnsc1C(=O)NC[C@]1(C)CCC[C@]2(C)c3ccc(C(C)C)cc3CC[C@@H]12,Non-toxic
6,CC(C)c1ccc2c(c1)CC[C@H]1[C@](C)(CNC(=O)c3ccc(C#N)cc3)CCC[C@]21C,Non-toxic
7,CC(C)c1ccc2c(c1)CC[C@H]1[C@](C)(CNC(=O)c3ccc(Cl)c([N+](=O)[O-])c3)CCC[C@]21C,Non-toxic
8,CC(C)c1ccc2c(c1)CC[C@H]1[C@](C)(CNC(=O)C3CC4C=CC3C4)CCC[C@]21C (stereo not given in full),Non-toxic
9,CC(C)c1ccc2c(c1)CC[C@H]1[C@](C)(CNC(=O)CC3CCCC3)CCC[C@]21C,Non-toxic
10,CC(C)c1ccc2c(c1)CC[C@H]1[C@](C)(CNC(=O)c3ccc(-c4ccccc4)cc3)CCC[C@]21C,Non-toxic
11,Cc1ccsc1C(=O)NC[C@]1(C)CCC[C@]2(C)c3ccc(C(C)C)cc3CC[C@@H]12,Non-toxic
12,Cc1csc(C(=O)NC[C@]2(C)CCC[C@]3(C)c4ccc(C(C)C)cc4CC[C@@H]23)c1,Non-toxic
13,CC(C)c1ccc2c(c1)CC[C@H]1[C@](C)(CNC(=O)c3ccc(Cl)cc3Cl)CCC[C@]21C,Non-toxic
14,CC(C)c1ccc2c(c1)CC[C@H]1[C@](C)(CNC(=O)c3cccs3)CCC[C@]21C,Non-toxic
15,CC(C)c1ccc2c(c1)CC[C@H]1[C@](C)(CNC(=O)c3ccc(I)cc3)CCC[C@]21C,Non-toxic

# Organism: Homo sapiens
# Assay: Antiproliferative activity against human ER-positive MA11 cells at 52 to 65 uM after 72 hrs by CellTiter-Glo assay
# Type: functional
# Details: not given
row,SMILES,Activity
1,CC(C)c1ccc2c(c1)CC[C@H]1[C@](C)(CNC(=O)c3c(Cl)cc(Cl)cc3Cl)CCC[C@]21C,inactive
2,CC(C)c1ccc2c(c1)CC[C@H]1[C@](C)(CNC(=O)CSc3ccccc3)CCC[C@]21C,inactive
3,CC(C)c1ccc2c(c1)CC[C@H]1[C@](C)(CNC(=O)c3cc4ccccc4o3)CCC[C@]21C,inactive
4,COc1ccc(C(=O)NC[C@]2(C)CCC[C@]3(C)c4ccc(C(C)C)cc4CC[C@@H]23)cc1,inactive
5,Cc1nnsc1C(=O)NC[C@]1(C)CCC[C@]2(C)c3ccc(C(C)C)cc3CC[C@@H]12,inactive
6,CC(C)c1ccc2c(c1)CC[C@H]1[C@](C)(CNC(=O)c3ccc(C#N)cc3)CCC[C@]21C,inactive
7,CC(C)c1ccc2c(c1)CC[C@H]1[C@](C)(CNC(=O)c3ccc(Cl)c([N+](=O)[O-])c3)CCC[C@]21C,inactive
8,CC(C)c1ccc2c(c1)CC[C@H]1[C@](C)(CNC(=O)C3CC4C=CC3C4)CCC[C@]21C (stereo not given in full),inactive
9,CC(C)c1ccc2c(c1)CC[C@H]1[C@](C)(CNC(=O)CC3CCCC3)CCC[C@]21C,inactive
10,CC(C)c1ccc2c(c1)CC[C@H]1[C@](C)(CNC(=O)c3ccc(-c4ccccc4)cc3)CCC[C@]21C,inactive
11,Cc1ccsc1C(=O)NC[C@]1(C)CCC[C@]2(C)c3ccc(C(C)C)cc3CC[C@@H]12,inactive
12,Cc1csc(C(=O)NC[C@]2(C)CCC[C@]3(C)c4ccc(C(C)C)cc4CC[C@@H]23)c1,inactive
13,CC(C)c1ccc2c(c1)CC[C@H]1[C@](C)(CNC(=O)c3ccc(Cl)cc3Cl)CCC[C@]21C,inactive
14,CC(C)c1ccc2c(c1)CC[C@H]1[C@](C)(CNC(=O)c3cccs3)CCC[C@]21C,inactive
15,CC(C)c1ccc2c(c1)CC[C@H]1[C@](C)(CNC(=O)c3ccc(I)cc3)CCC[C@]21C,inactive

# Tested on: MCF7
# Assay: Antiproliferative activity against human ER-positive MCF7 cells at 52 to 65 uM after 72 hrs by CellTiter-Glo assay
# Type: functional, cell-based
# Details: not given
row,SMILES,Activity
1,CC(C)c1ccc2c(c1)CC[C@H]1[C@](C)(CNC(=O)c3c(Cl)cc(Cl)cc3Cl)CCC[C@]21C,inactive
2,CC(C)c1ccc2c(c1)CC[C@H]1[C@](C)(CNC(=O)CSc3ccccc3)CCC[C@]21C,inactive
3,CC(C)c1ccc2c(c1)CC[C@H]1[C@](C)(CNC(=O)c3cc4ccccc4o3)CCC[C@]21C,inactive
4,COc1ccc(C(=O)NC[C@]2(C)CCC[C@]3(C)c4ccc(C(C)C)cc4CC[C@@H]23)cc1,inactive
5,Cc1nnsc1C(=O)NC[C@]1(C)CCC[C@]2(C)c3ccc(C(C)C)cc3CC[C@@H]12,inactive
6,CC(C)c1ccc2c(c1)CC[C@H]1[C@](C)(CNC(=O)c3ccc(C#N)cc3)CCC[C@]21C,inactive
7,CC(C)c1ccc2c(c1)CC[C@H]1[C@](C)(CNC(=O)c3ccc(Cl)c([N+](=O)[O-])c3)CCC[C@]21C,inactive
8,CC(C)c1ccc2c(c1)CC[C@H]1[C@](C)(CNC(=O)C3CC4C=CC3C4)CCC[C@]21C (stereo not given in full),inactive
9,CC(C)c1ccc2c(c1)CC[C@H]1[C@](C)(CNC(=O)CC3CCCC3)CCC[C@]21C,inactive
10,CC(C)c1ccc2c(c1)CC[C@H]1[C@](C)(CNC(=O)c3ccc(-c4ccccc4)cc3)CCC[C@]21C,inactive
11,Cc1ccsc1C(=O)NC[C@]1(C)CCC[C@]2(C)c3ccc(C(C)C)cc3CC[C@@H]12,inactive
12,Cc1csc(C(=O)NC[C@]2(C)CCC[C@]3(C)c4ccc(C(C)C)cc4CC[C@@H]23)c1,inactive
13,CC(C)c1ccc2c(c1)CC[C@H]1[C@](C)(CNC(=O)c3ccc(Cl)cc3Cl)CCC[C@]21C,inactive
14,CC(C)c1ccc2c(c1)CC[C@H]1[C@](C)(CNC(=O)c3cccs3)CCC[C@]21C,inactive
15,CC(C)c1ccc2c(c1)CC[C@H]1[C@](C)(CNC(=O)c3ccc(I)cc3)CCC[C@]21C,inactive

# Reference: ChEMBL document CHEMBL3616432, “(+)-Dehydroabietylamine derivatives target triple-negative breast cancer” (Eur J Med Chem, 2015)
